According to patent US8981094B2, “Piperidine/piperazine derivatives” (Janssen Pharmaceutica N.V., priority 2007, dated 2015):

What was measured:
human DGAT1 = biological target: T1, human DGAT1 (Homo sapiens, UniProt O75907); experiment: Inhibition of DGAT1 activity, FlashPlate assay with DGAT1 membrane preparations and substrate micelles; type: biochemical; details: pIC50 = -logIC50, IC50 values expressed in M
T1 construct: FLAG (N); made in house; host or cells: SF9 insect cells (pFastBac baculovirus); total cell membranes
T1 sequence (O75907 1-488): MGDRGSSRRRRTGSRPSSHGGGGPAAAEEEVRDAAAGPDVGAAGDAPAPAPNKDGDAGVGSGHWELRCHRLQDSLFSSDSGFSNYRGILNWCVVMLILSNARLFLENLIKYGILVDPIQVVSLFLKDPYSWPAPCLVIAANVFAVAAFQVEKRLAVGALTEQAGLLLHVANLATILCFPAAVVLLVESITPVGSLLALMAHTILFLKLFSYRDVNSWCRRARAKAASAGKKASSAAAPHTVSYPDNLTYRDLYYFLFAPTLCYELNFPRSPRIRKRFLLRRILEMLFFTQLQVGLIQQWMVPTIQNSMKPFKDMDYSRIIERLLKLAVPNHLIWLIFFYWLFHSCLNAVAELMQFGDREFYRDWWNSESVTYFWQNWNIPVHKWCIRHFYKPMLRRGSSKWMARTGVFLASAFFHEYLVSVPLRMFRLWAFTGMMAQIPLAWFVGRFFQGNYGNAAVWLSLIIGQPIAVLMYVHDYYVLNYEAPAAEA
Summary of the method: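 FLAG-tagged human DGAT1 membranes (expressed in Sf9 cells) were incubated 120 min at 37° C. in 50 mM Tris-HCl pH 7.4 with 150 mM MgCl2, 1 mM EDTA, 0.2% BSA, 50 μM DAG micelles (PC/PS) and 8.4 μM [^3H]-oleoylCoA. The reaction was stopped with N-ethylmaleimide and read as FlashPlate radioluminescence. Responses were normalized to enzyme/no-enzyme controls to fit dose-response curves.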

| melting point [°C] | IC50 (human DGAT1) [µM] | SMILES |
| --- | --- | --- |
| 285.3 | 0.00447 | O=C(CC1CCCCC1)Nc1ccc(N2CCN(C(=O)Nc3c(Cl)cccc3Cl)CC2)cc1 [Compound 1] |
| 268.2 | 0.00759 | O=C(CCOc1ccccc1)Nc1ccc(N2CCN(C(=O)Nc3c(Cl)cccc3Cl)CC2)cc1 [Compound 3] |
| 247 to 249 | 0.00269 | O=C(CNc1ccccc1Cl)Nc1ccc(N2CCN(C(=O)Nc3c(Cl)cccc3Cl)CC2)cc1 [Compound 4] |
| 242.6 | 0.151 | CC(C)(C)OC(=O)NC1(C(=O)Nc2ccc(N3CCN(C(=O)Nc4c(Cl)cccc4Cl)CC3)cc2)CCCC1 [Compound 5] |
| 232 to 233 | 0.00851 | C=CCN(CCC(=O)Nc1ccc(N2CCN(C(=O)Nc3c(Cl)cccc3Cl)CC2)cc1)c1ccccc1Cl [Compound 7] |
| 245.1 | 0.00891 | CCCCCCC(=O)Nc1ccc(N2CCN(C(=O)Nc3c(Cl)cccc3Cl)CC2)cc1 [Compound 8] |
| 187 to 188 | 0.55 | O=C(CCc1ccccn1)Nc1ccc(N2CCN(C(=O)Nc3c(Cl)cccc3Cl)CC2)cc1 [Compound 9] |
| 238.7 | 0.00617 | Cc1cc(C)c(NC(=O)N2CCN(c3ccc(NC(=O)CCCc4ccccc4)cc3)CC2)c(Br)c1 [Compound 11] |
| 209.8 | 0.182 | O=C(CCCc1ccccc1)Nc1ccc(N2CCN(C(=O)Nc3c(Cl)ccc4c3CCO4)CC2)cc1 [Compound 12] |
| 217 to 219 | 0.316 | CC(C)NC(=O)N(C)CC(=O)Nc1ccc(N2CCN(C(=O)Nc3c(Cl)cccc3Cl)CC2)cc1 [Compound 14] |
| 183 to 184 | 0.00468 | COc1ccc(CC(=O)Nc2ccc(N3CCN(C(=O)Nc4c(Cl)cc(O)cc4Cl)CC3)cc2)cc1 [Compound 16] |
| 178.2 | 0.12 | O=C(CCCc1ccccc1)Nc1ccc(N2CCN(/C=C/C(=O)c3c(Cl)cccc3Cl)CC2)cc1 [Compound 18] |
| 142.3 | 0.0309 | O=C(CCCc1ccccc1)Nc1ccc(N2CCN(C(=O)C(O)c3ccccc3Cl)CC2)cc1 (stereo not shown) [Compound 19] |
| 244 to 246 | 0.0724 | O=C(CNc1ccccc1)Nc1ccc(N2CCN(C(=O)Nc3c(Cl)cccc3Cl)CC2)cc1 [Compound 21] |
| 248 to 249 | 0.0148 | Cc1ccc(NCC(=O)Nc2ccc(N3CCN(C(=O)Nc4c(Cl)cccc4Cl)CC3)cc2)c(C)c1 [Compound 22] |
| 232 to 234 | 0.692 | CS(=O)(=O)N1CCN(CC(=O)Nc2ccc(N3CCN(C(=O)Nc4c(Cl)cccc4Cl)CC3)cc2)CC1 [Compound 26] |
| 196.1 | 0.00195 | O=C(CCCc1ccccc1)Nc1ccc(N2CCN(C(=O)Nc3c(Cl)cc(CO)cc3Cl)CC2)cc1 [Compound 28] |
| 187.3 | 0.00398 | CC(O)c1cc(Cl)c(NC(=O)N2CCN(c3ccc(NC(=O)CCCc4ccccc4)cc3)CC2)c(Cl)c1 (stereo not shown) [Compound 29] |
| 175 to 176 | 0.00447 | COc1cc(Cl)c(NC(=O)N2CCN(c3ccc(NC(=O)CNc4ccc(C)cc4C)cc3)CC2)c(Cl)c1 [Compound 31] |
| 188 to 189 | 0.347 | COc1ccc(CNCCC(=O)Nc2ccc(N3CCN(C(=O)Nc4c(Cl)cccc4Cl)CC3)cc2)cc1 [Compound 32] |
| 142.1 | 0.145 | O=C(CCCc1ccccc1)Nc1ccc(N2CCN(C(=O)Nc3ccccc3Cl)CC2)cc1 [Compound 34] |
| 169.9 | 0.24 | O=C(CNCc1ccc(F)cc1)Nc1ccc(N2CCN(C(=O)Nc3c(Cl)cccc3Cl)CC2)cc1 [Compound 35] |
| 254.2 | 0.0871 | O=C(CNc1ccc(F)cc1)Nc1ccc(N2CCN(C(=O)Nc3c(Cl)cccc3Cl)CC2)cc1 [Compound 36] |
| 237.1 | 0.129 | CC1CN(CC(=O)Nc2ccc(N3CCN(C(=O)Nc4c(Cl)cccc4Cl)CC3)cc2)CC(C)O1 (stereo not shown) [Compound 37] |
| 186.1 | 0.0776 | Cc1cc(C)cc(N2CCN(CC(=O)Nc3ccc(N4CCN(C(=O)Nc5c(Cl)cccc5Cl)CC4)cc3)CC2)c1 [Compound 41] |
| 175.2 | 6.92 | CN(C(=O)CCCc1ccccc1)c1ccc(N2CCN(C(=O)Nc3c(Cl)cccc3Cl)CC2)cc1 [Compound 42] |
| 178.7 | 2.34 | COCCOCC(=O)Nc1ccc(N2CCN(C(=O)Nc3c(Cl)cccc3Cl)CC2)cc1 [Compound 45] |

| melting point [°C] | IC50 (human DGAT1) [µM] | SMILES |
| --- | --- | --- |
| 223 | 0.331 | O=C(CCCc1ccccc1)Nc1ccc(N2CCN(C(=O)Nc3c(Cl)cc(Br)c4c3CCO4)CC2)cc1 [Compound 46] |
| 253.4 | 0.148 | O=C(Nc1ccc(N2CCN(C(=O)Nc3c(Cl)cccc3Cl)CC2)cc1)C(O)CCc1ccccc1 (stereo not shown) [Compound 48] |
| 207.9 | 0.12 | O=C(CCCc1ccccc1)Nc1ccc(N2CCN(C(=O)Nc3c(F)cc(Br)cc3F)CC2)cc1 [Compound 49] |
| 219.9 | 0.0955 | CCOC(=O)CC(=O)Nc1ccc(N2CCN(C(=O)Nc3c(Cl)cccc3Cl)CC2)cc1 [Compound 50] |
| 177.8 | 0.0182 | C=CCN(CC(=O)Nc1ccc(N2CCN(C(=O)Nc3c(Cl)cccc3Cl)CC2)cc1)Cc1ccc(F)cc1 [Compound 51] |
| 125.4 | 0.0234 | CC(NCCCN(C)C)c1cc(Cl)c(NC(=O)N2CCN(c3ccc(NC(=O)CCCc4ccccc4)cc3)CC2)c(Cl)c1 (stereo not shown) [Compound 54] |
| 218 | 0.0162 | CC(c1cc(Cl)c(NC(=O)N2CCN(c3ccc(NC(=O)CCCc4ccccc4)cc3)CC2)c(Cl)c1)N1CCCCC1 (stereo not shown) [Compound 56] |
| 114 to 124 | 0.00537 | O=C(CCCc1ccccc1)Nc1ccc(N2CCN(C(=O)Nc3c(Cl)cccc3Cl)CC2)cc1 [Compound 58] |
| 234.9 | 0.0129 | O=C(CCCc1ccccc1)Nc1ccc(N2CCN(C(=O)Nc3c(Cl)cc(Cl)cc3Cl)CC2)cc1 [Compound 59] |
| 240.7 | 0.0126 | Cc1cccc(Cl)c1NC(=O)N1CCN(c2ccc(NC(=O)CCCc3ccccc3)cc2)CC1 [Compound 60] |
| 241.7 | 0.038 | Cc1cc(Br)cc(C)c1NC(=O)N1CCN(c2ccc(NC(=O)CCCc3ccccc3)cc2)CC1 [Compound 61] |
| 254 | 0.0162 | O=C(CCCc1ccccc1)Nc1ccc(N2CCN(C(=O)Nc3c(Cl)cccc3C(F)(F)F)CC2)cc1 [Compound 62] |
| 218.6 | 0.0309 | O=C(CCCc1ccccc1)Nc1ccc(N2CCN(C(=O)Nc3c(F)cc(Br)cc3Br)CC2)cc1 [Compound 63] |
| 210.6 | 0.00708 | Cc1cc(C)c(NC(=O)N2CCN(c3ccc(NC(=O)CCCc4ccccc4)cc3)CC2)c(Cl)c1 [Compound 64] |
| 181.7 | 0.0269 | Cc1ccc(NC(=O)N2CCN(c3ccc(NC(=O)CCCc4ccccc4)cc3)CC2)c(C)c1 [Compound 66] |
| 187 | 0.0603 | O=C(CCCc1ccccc1)Nc1ccc(N2CCN(C(=O)Nc3c(F)cccc3F)CC2)cc1 [Compound 67] |
| 223 | 0.0123 | Cc1cc(C)c(NC(=O)N2CCN(c3ccc(NC(=O)CCCc4ccccc4)cc3)CC2)c(C)c1 [Compound 68] |
| 183.1 | 1.07 | COc1ccccc1CNC(=O)N1CCN(c2ccc(NC(=O)CCCc3ccccc3)cc2)CC1 [Compound 71] |
| 141.2 | 0.457 | O=C(CCCc1ccccc1)Nc1ccc(N2CCN(C(=O)Nc3ccc(F)cc3F)CC2)cc1 [Compound 73] |
| – | 3.72 | O=C(CCCc1ccccc1)Nc1ccc(N2CCN(C(=O)C(O)c3ccc(F)c(F)c3)CC2)cc1 (stereo not shown) [Compound 341] |
| – | 3.98 | COc1ccc(CC(=O)Nc2ccc(N3CCN(C(=O)C4(c5c(Cl)cccc5Cl)CC4)CC3)cc2)cc1 [Compound 342] |
| – | 4.07 | O=C(CCCc1ccccc1)Nc1ccc(N2CCN(C(=O)C(O)c3ccc(F)cc3)CC2)cc1 (stereo not shown) [Compound 344] |
| – | 5.01 | CC(C(=O)N1CCN(c2ccc(NC(=O)CCCc3ccccc3)cc2)CC1)c1ccc(O)cc1 (stereo not shown) [Compound 347] |
| – | 5.25 | COc1cc(C(O)C(=O)N2CCN(c3ccc(NC(=O)CCCc4ccccc4)cc3)CC2)ccc1O (stereo not shown) [Compound 348] |
| – | 6.03 | O=C(CCCc1ccccc1)Nc1ccc(N2CCN(C(=O)C(O)c3ccc(Br)cc3)CC2)cc1 (stereo not shown) [Compound 349] |
| – | 0.245 | COc1ccc(CC(=O)Nc2ccc(N3CCN(C(=O)Cc4c(Cl)cc(CN5CCCC5)cc4Cl)CC3)cc2)cc1 [Compound 351] |
| – | 0.339 | COc1ccc(CC(=O)Nc2ccc(N3CCN(C(=O)C(O)c4ccc(CN5CCCC5)cc4Cl)CC3)cc2)cc1 (stereo not shown) [Compound 352] |
